The text below walks through data of patent US20170096492A1, “DOSAGE AND ADMINISTRATION OF ANTI-IGF-1R, ANTI-ErbB3 BISPECIFIC ANTIBODIES, USES THEREOF AND METHODS OF TREATMENT [sequence]” (Merrimack Pharmaceuticals, Inc., priority 2014, published 2017).

“Also recorded” adds a separate entry of the source.

Experiment [1] relates to CFPAC-1 pancreatic cancer cells. Put plainly: pAKT (Ser473) ELISA after chemotherapy and ligand stimulation. It counts as cell-based, human. The note with it: then HRG 5 nM or IGF-1 50 nM 15 minutes. The method, then: CFPAC-1 pancreatic cancer cells were seeded at 65% confluence in 10% serum-containing medium on 96-well plates overnight. […] Following incubation, cells were treated with (FIG. 24A) HRG (5 nM) or (FIG. 24B) IGF-1 (50 nM) for 15 minutes, where indicated. After treatment, cells were harvested and protein lysates generated. Changes in pAKT (Ser473) levels across all treatments were evaluated by pAKT ELISA, respectively. FIGS. 24(A-B) are bar graphs showing pAKT levels relative to ligand alone stimulated signals, which were normalized to 1.
CFPAC-1 pancreatic cancer cells were seeded at 65% confluence in 10% serum-containing medium on 96-well plates overnight. […] Following incubation, cells were treated with (FIG. 25A) HRG (5 nM) or (FIG. 25B) IGF-1 (50 nM) for 15 minutes, where indicated. After treatment, cells were harvested and protein lysates generated. Changes in pAKT (Ser473) levels across all treatments were evaluated by pAKT ELISA, respectively. FIGS. 25(A-B) are bar graphs showing pAKT levels relative to ligand alone stimulated signals, which were normalized to 1.

Experiment [2] relates to CFPAC-1 human pancreatic cancer cells. The experiment is described as follows: HRG mRNA expression by real time PCR. The note with it: 24 hours. It counts as cell-based. The procedure:
CFPAC-1 human pancreatic cancer cells were serum-starved by plating the cells in 2% serum-containing medium overnight, followed by treatment with vehicle, 500 nM gemcitabine, or 50 nM paclitaxel for 24 hours. Post-treatment, cell lysates were harvested, mRNA extracted, cDNA generated and changes in HRG mRNA expression evaluated by real time PCR. Bar graphs represent mean HRG mRNA expression relative to the geometric mean of three housekeeping genes (protein phosphatase 2 catalytic subunit alpha (PPP2CA), ribosomal protein L4 (RPL4), and glucuronidase beta (GUSB)), normalized to vehicle control.
(In general: Quantitative PCR measures a nucleic acid by following its amplification.)

For experiment [3], the system named is DU145 prostate cancer-derived xenograft tumors. Put plainly: DU145 xenograft PD, western blot. Type of experiment: in vivo, mice. The note with it: docetaxel 20 mpk i.p. single dose, tumors harvested Day 4. An excerpt:
(§1) For the PD studies described in FIGS. 6A-B and FIGS. 9 A-B, nu/nu female mice were inoculated with 8×10^6 DU145 or 5×10^6 BxPC-3 cells, respectively, in 1:1 Matrigel® suspension. […] Tumor lysates were generated and subjected to western blot analysis.
A general note: In western blotting, separated proteins are transferred to a membrane and probed.

Experiment [4] concerns the target mTOR (Homo sapiens, UniProt P42345). The note with it: cited from earlier work.
The test system of experiment [5] is CAKI-1 xenografts. The experiment is described as follows: CAKI-1 xenograft PD, western blot. Type of experiment: in vivo, mice. As to conditions: single agent; MM-141 30 mpk i.p. or everolimus 10 mpk orally, 2 doses; tumors harvested 24 hours after second dose. The method, then:
For the PD study results shown in FIGS. 3A-B and FIGS. 5A-C, NOD/SCID female mice were inoculated with 12×10^6 CAKI-1 or 10×10^6 SK-ES-1 cells, respectively, in 1:1 Matrigel® suspension. […] Tumors were harvested 24 hours after the second dose of drug; lysates were generated and subjected to western blot analysis.

Experiment [6] relates to BxPC-3 derived xenograft tumors. Put plainly: BxPC-3 xenograft PD, western blot. It counts as in vivo, mice. As to conditions: gemcitabine 150 mpk i.p. Day 0, 6; tumors harvested Day 7.
From the text: as §1

Experiment [7] concerns HepG2 hepatocellular carcinoma cells. The experiment is described as follows: HepG2 western blot, sorafenib with or without MM-141. It counts as cell-based. The note with it: sorafenib 5 μM, 2 hours. The method, then:
HepG2 cells were plated on 12 well dishes (3×10^5 cells per well) in 10% serum-containing media and incubated overnight. […] Following treatment, cells were harvested in lysis buffer containing protease and phosphatase inhibitors and analyzed by western blotting.

Consider `CC(=O)O[C@H]1C(=O)[C@@]2(C)[C@H]([C@H](OC(=O)c3ccccc3)[C@]3(O)C[C@H](OC(=O)[C@H](O)[C@@H](NC(=O)c4ccccc4)c4ccccc4)C(C)=C1C3(C)C)[C@]1(OC(C)=O)CO[C@@H]1C[C@@H]2O` [paclitaxel, Paclitaxel, reference compound], for which, in experiment [1] (paclitaxel 100 nM 24 hours), the “sensitivity to ligands, pAKT (Ser473)” value was “increased sensitivity to IGF-1”. The “HRG mRNA relative to vehicle control” value in experiment [2] (50 nM paclitaxel) is “at least doubles”.
Turning to `CC(=O)O[C@@]12CO[C@@H]1C[C@H](O)[C@@]1(C)C(=O)[C@H](O)C3=C(C)[C@@H](OC(=O)[C@H](O)[C@@H](NC(=O)OC(C)(C)C)c4ccccc4)C[C@@](O)([C@@H](OC(=O)c4ccccc4)[C@H]21)C3(C)C` [docetaxel, Docetaxel], in experiment [3], the “ErbB3 protein expression level” value was “up-regulated” and the “IGF-1R protein expression level” value is recorded as “up-regulated”.
With `COc1ccc(-c2ccc3c(N4CCOC[C@@H]4C)nc(N4CCOC[C@@H]4C)nc3n2)cc1CO` [AZD8055], the “selectivity against PI3K isoforms and ATM/DNA-PK” value in experiment [4] is on record as ~1,000 fold.
Regarding `CO[C@H]1C[C@@H]2CC[C@@H](C)[C@@](O)(O2)C(=O)C(=O)N2CCCC[C@H]2C(=O)O[C@H]([C@H](C)C[C@@H]2CC[C@@H](OCCO)[C@H](OC)C2)CC(=O)[C@H](C)/C=C(\C)[C@@H](O)[C@@H](OC)C(=O)[C@H](C)C[C@H](C)/C=C/C=C/C=C/1C` [everolimus, Everolimus, reference compound], in experiment [5], the “total ErbB2” value was “upregulation” and the “total IGF-1R” value is given as “upregulation”.
Turning to `Nc1ccn([C@@H]2O[C@H](CO)[C@@H](O)C2(F)F)c(=O)n1` [gemcitabine, Gemcitabine], in experiment [6], the “total ErbB3” value is “up-regulation and activation”; the “total IGF-1R” value was “up-regulation and activation”. Besides, the “sensitivity to ligands, pAKT (Ser473)” value in experiment [1] (gemcitabine 1 μM 24 hours) is “increased sensitivity to HRG and IGF-1”. The “HRG mRNA increase relative to vehicle control” value in experiment [2] (500 nM gemcitabine) is recorded as “about 22 fold”.
For the compound `CNC(=O)c1cc(Oc2ccc(NC(=O)Nc3ccc(Cl)c(C(F)(F)F)c3)cc2)ccn1` [sorafenib, Sorafenib], in experiment [7], the ErbB3 level result was “up-regulated; also recorded: upregulation of ErbB3 activity” and the pAKT level entry is on record as “up-regulated”.
